Test results from US6864286B2, “Inhibitors of the EGF-receptor tyrosine kinase and methods for their use” (Parker Hughes Institute, priority 1998, dated 2005).
“Also recorded” adds a separate entry of the source.

Tests used:
MDA-MB-231 cells [1] = test: In vitro clonogenic assay, MDA-MB-231; assay type: cell-based, human; conditions: 24 hour treatment; for inhibition at 0.1 µM / inhibition at 10 µM / inhibition at 100 µM: Homo sapiens
Procedure: In order to determine the cytotoxic activity of LFM and its analogs against breast cancer cells, cells in alpha-MEM supplemented with 10% (v/v) fetal calf serum were treated with various concentrations of the compounds for 24 hours at 37° C., washed twice in alpha-MEM, and then used in either MTT assays or in vitro invasion assays, as described hereinafter.
After treatment with LFM analogs, cells were resuspended in clonogenic medium consisting of alpha-MEM supplemented with 0.9% methylcellulose, 30% fetal bovine serum, and 50 μM 2-mercaptoethanol. Cells were plated in duplicate Petri dishes at 100,000 cells/mL/dish and cultured in a humidified 5% CO2 incubator for 7 days. Cancer cell colonies were enumerated on a grid using an inverted phase microscope of high optical resolution (Uckun F. M., et al. Clin. Cancer Res. 1998, 4, 901-912; and Kuo). Results were expressed as % inhibition of clonogenic cells at a particular concentration of the test agent using the formula: % Inhibition=(1-Mean # of colonies [Test]/Mean # of colonies [Control])×100. Furthermore, the dose survival curves were constructed using the percent control survival (=Mean # of colonies[Test]/Mean # of colonies [Control]×100) results for each drug concentration as the data points and the IC50 values were calculated. The IC50 values were determined using an Prism Version II Inplot program (Graphpad Software, Inc., San Diego, Calif.).

MDA-MB-231 cells [2] = test: Confocal laser scanning microscopy of treated cells; assay type: cell-based, human; conditions: MDA-MB-231, 100 μM, 24 hours, α-tubulin / TOTO-3 staining
Procedure: Immunofluorescence was used to examine the morphologic features of breast cancer cells treated with LFM and its analogs. Before the experiment, cells were trypsinized from rapidly growing tissue culture flasks and seeded onto sterile 22 mm^2 coverslips in 6-well culture plates. Cells on coverslips were returned to the incubator for 24 hours prior to treatment. The following day, drugs were added from a stock solution made in DMSO to a final concentration of 100 μM. Final DMSO concentration was 0.1% in both test samples and controls. Cells were returned to a 37° C. incubator for 24 hours before further processing.
At 24 hours, coverslips were fixed in −20° C. methanol for 15 minutes followed by a 15 minute incubation in phosphate buffered saline +0.1% Triton X-100(PBS-Tx). Coverslips were next incubated with a monoclonal antibody against α-tubulin (Sigma Chemical Co, St. Louis, Mo.) at a dilution of 1:1000 for 40 minutes in a humidified chamber at 37° C. Coverslips were washed for 15 minutes in PBS-Tx followed by a 40 min incubation with a goat anti-mouse IgG antibody conjugated to FITC (Amersham Corp., Arlington Heights, Ill.). The coverslips were again rinsed in PBS-Tx and incubated with 5 μM TOTO-3 (Molecular Probes, Eugene Oreg.) for 20 minutes to label the nuclear DNA. […]

SMILES	inhibition at 0.1 µM (MDA-MB-231 cells [1]; MDA-MB-231, 0.1 μM) [%]	inhibition at 10 µM (MDA-MB-231 cells [1]; MDA-MB-231, 10 μM) [%]	inhibition at 100 µM (MDA-MB-231 cells [1]; MDA-MB-231, 100 μM) [%]	Tumor Cell Colonies/10^5 Cells (MDA-MB-231 cells [1]; MDA-MB-231, 0.1 μM)	Tumor Cell Colonies/10^5 Cells (MDA-MB-231 cells [1]; MDA-MB-231, 10 μM)	Tumor Cell Colonies/10^5 Cells (MDA-MB-231 cells [1]; MDA-MB-231, 100 μM)	% Inhibition of clonogenic cells (MDA-MB-231 cells [1]; MDA-MB-231, 100 μM, 100 µM) [%]	morphology and microtubular organization of treated cells (MDA-MB-231 cells [2])
CC(O)=C(C#N)C(=O)Nc1ccc(C(F)(F)F)cc1 [LFM, α-Cyano-β-hydroxy-β-methyl-N-[4-(trifluoromethyl)phenyl]-propenamide, reference compound]	16.2	44.2	74.2	964	642	297		
C/C(O)=C(\C#N)C(=O)Nc1ccc(OC(F)(F)F)cc1 [LFM-A12, α-Cyano-β-hydroxy-β-methyl-N-[4-(trifluoromethoxy)phenyl]-propenamide]	42	55.2	> 99	667	515	0	>99	much smaller and had an abnormal shape with large cytoplasmic vacuoles; also recorded: marked shrinkage with disruption of microtubules
